Patent US10844044B2 (Vanderbilt University, priority 2018, dated 2020)
Read-outs that look alike come from different tables or passages of the source.

What was measured:
[1] = test system: MV4:11 human cancer cell lines; test: Anti-proliferative activity, CellTiter-Glo viability assay, 7 day protocol; type: cell-based; conditions: Homo sapiens, MV4-11, 168 h, MV4:11 cells, 7 day incubation, read-out: GI50 on cellular proliferation of MV4:11 human cancer cell lines
Method in brief: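 Luminescent CellTiter-Glo readout after 7-day compound exposure of MV4:11 cells plated at 3600 cells/ml (final DMSO 0.1%). GI50 derived from three biological × three technical replicates, reported as mean ± S.E.M.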

WDR5 = WDR5 (Homo sapiens (Human), UniProt P61964); test: TR-FRET binding assay (displacement of 10mer-Thr-FAM probe from WDR5)
[2] = read-out: Ki for Inhibition of WDR5 by TR-FRET assay, TR-FRET, 10mer-Thr-FAM probe, WDR5-His tag 2 nM, pH 7.0
[3] = read-out: Ki for Inhibition of WDR5 by TR-FRET assay

| SMILES | GI50 [1] [nM] | Ki (WDR5; [2]) [nM] | Ki (WDR5; [3]) [nM] | Ki (WDR5) [nM] |
| --- | --- | --- | --- | --- |
| CC(C)n1cc(-c2cc(CN3CCN(C)C3=N)cc(C(=O)N[C@H](c3ccc(F)c(F)c3)C3CC3)c2)c(C(F)(F)F)n1 [Example 216, (S)—N-(Cyclopropyl(3,4-difluorophenyl)methyl)-3-((2-imino-3-methylimidazolidin-1-yl)methyl)-5-(1-isopropyl-3-(trifluoromethyl)-1H-pyrazol-4-yl)benzamide] | < 100 | < 0.1 | – | – |
| Cc1cc([C@@H](NC(=O)c2cc(Cn3ccn(C)c3=N)cc(C3(C(F)(F)F)CC3)c2)C2CC2)ccc1F [Example 217, (S)—N-(cyclopropyl(4-fluoro-3-methylphenyl)methyl)-3-((2imino-3-methyl-2,3-dihydro-1H-imidazol-1-yl)methyl)-5-(1-(trifluoromethyl)cyclopropyl)benzamide] | < 100 | < 0.1 | – | – |
| CN1CCN(Cc2cc(C(=O)N[C@H](c3ccc(F)c(Cl)c3)C3CC3)cc(-c3cccnc3C(F)(F)F)c2)C1=N [Example 219, (S)—N-((3-chloro-4-fluorophenyl)(cyclopropyl)methyl)-3-((2-imino-3-methylimidazolidin 1-yl)methyl)-5-(2-(trifluoromethyl)pyridin-3-yl)benzamide] | < 100 | < 0.1 | – | – |
| Cc1cccc(C2(NC(=O)c3cc(Cn4ccn(C)c4=N)cc(-c4cn(C)nc4C(F)(F)F)c3)CCC2)c1 [Example 220, 3-((2-Imino-3-methyl-2,3-dihydro-1H-imidazol-1-yl)methyl)-5-(1-methyl-3-(trifluoromethyl)-1H-pyrazol-4-yl)-N-(1-(m-tolyl)cyclobutyl)benzamide] | 220 | < 0.1 | – | – |
| COc1cc([C@@H](NC(=O)c2cc(Cn3ccn(C)c3=N)cc(-c3cn(C)nc3C(F)(F)F)c2)C2CC2)ncc1F [Example 221, (S)—N-(Cyclopropyl(5-fluoro-4-methoxypyridin-2-yl)methyl)-3-((2-imino-3-methyl-2,3-dihydro-1-imidazol-1-yl)methyl)-5-(1-methyl-3-(trifluoromethyl)-1H-pyrazol-4-yl)benzamide] | < 100 | < 0.1 | – | – |
| Cc1cc([C@@H](NC(=O)c2cc(Cn3ccn(C)c3=N)cc(N3CCOC[C@H]3C)c2)C2CC2)ccc1F [Example 227, N—((S)-cyclopropyl(4-fluoro-3-methylphenyl)methyl)-3-((2-imino-3-methyl-2,3-dihydro-1H-imidazol-1-yl)methyl)-5-((R)-3-methylmorpholino)benzamide] | 940 | – | 2.1 | – |
| COc1cc(CNC(=O)c2cc(Cn3ccoc3=N)cc(-c3ccc(F)cc3C)c2)cc(OC)c1 [Example 229, N-(3,5-Dimethoxybenzyl)-4′-fluoro-5-((2-iminooxazol-3(2H)-yl)methyl)-2′-methyl-[1,1′-biphenyl]-3-carboxamide] | 550 | – | – | 0.21 |
| COc1cc(OC)cc(C(NC(=O)c2cc(Cn3ccoc3=N)cc(-c3ncccc3C(F)(F)F)c2)C2CC2)c1 (centres unmarked) [Example 235, N-(Cyclopropyl(3,5-dimethoxyphenyl)methyl)-3-((2-iminooxazol-3(2H)-yl)methyl)-5-(3-(trifluoromethyl)pyridin-2-yl)benzamide] | 3100 | 3.5 | – | – |
| COc1cc(OC)cc(C(NC(=O)c2cc(Cn3ccoc3=N)cc(-c3ccc(F)cc3OC(F)F)c2)C2CC2)c1 (centres unmarked) [Example 236, N-(Cyclopropyl(3,5-dimethoxyphenyl)methyl)-2′-(difluoromethoxy)-4′-fluoro-5-((2-iminooxazol-3(2H)-yl)methyl)-[1,1′-biphenyl]-3-carboxamide] | 450 | 0.16 | – | – |
| COc1cc(CNC(=O)c2cc(Cn3ccoc3=N)cc(-c3ncc(F)cc3C)c2)cc(OC)c1 [Example 238, N-(3,5-Dimethoxybenzyl)-3-(5-fluoro-3-methylpyridin-2-yl)-5-((2-iminooxazol-3(2H)-yl)methyl)benzamide] | 3800 | – | 2.9 | – |
| Cc1ccnc([C@@H](NC(=O)c2cc(Cn3ccoc3=N)cc(-c3ccc(F)cc3C)c2)C2CC2)c1 [Example 247, (S)—N-(Cyclopropyl(4-methylpyridin-2-yl)methyl)-4′-fluoro-5-((2-iminooxazol-3(2H)-yl)methyl)-2′-methyl-[1,1′-biphenyl]-3-carboxamide] | 270 | 0.14 | – | – |
| Cc1cc([C@@H](NC(=O)c2cc(Cn3ccoc3=N)cc(-c3ccc(F)cc3Cl)c2)C2CC2)ccc1F [Example 248, (S)-2′-Chloro-N-(cyclopropyl(4-fluoro-3-methylphenyl)methyl)-4′-fluoro-5-((2-iminooxazol-3(2H)-yl)methyl)-[1,1′-biphenyl]-3-carboxamide] | 120 | < 0.1 | – | – |
| Cc1cn(Cc2cc(C(=O)N[C@H](c3ccc(F)c(C)c3)C3CC3)cc(-c3cccnc3C(F)(F)F)c2)c(=N)o1 [Example 250, (S)—N-(Cyclopropyl(4-fluoro-3-methylphenyl)methyl)-3-((2-imino-5-methyloxazol-3(2H)-yl)methyl)-5-(2-(trifluoromethyl)pyridin-3-yl)benzamide] | 570 | 0.4 | – | – |
| Cc1cc([C@@H](NC(=O)c2cc(Cn3ccoc3=N)cc(-c3cn(C)nc3C(F)(F)F)c2)C2CC2)ccc1F [Example 259, (S)—N-(Cyclopropyl(4-fluoro-3-methylphenyl)methyl)-3-((2-iminooxazol-3(2H)-yl)methyl)-5-(1-methyl-3-(trifluoromethyl)-1H-pyrazol-4-yl)benzamide] | < 100 | – | < 0.1 | – |
| Cc1cc([C@@H](NC(=O)c2cc(Cn3ccoc3=N)cc(-c3cccnc3OC(F)F)c2)C2CC2)ccc1F [Example 261, (S)—N-(Cyclopropyl(4-fluoro-3-methylphenyl)methyl)-3-(2-(difluoromethoxy)pyridin-3-yl)-5-((2-iminooxazol-3(2H)-yl)methyl)benzamide] | 730 | 0.28 | – | – |
| Cn1cc(-c2cc(Cn3ccoc3=N)cc(C(=O)N[C@H](c3ccc(Cl)c(Cl)c3)C3CC3)c2)c(C(F)(F)F)n1 [Example 268, (S)—N-(Cyclopropyl(3,4-dichlorophenyl)methyl)-3-((2-iminooxazol-3(2H)-yl)methyl)-5-(1-methyl-3-(trifluoromethyl)-1 t-pyrazol-4-yl)benzamide] | < 100 | – | < 0.1 | – |
| Cn1cc(-c2cc(CN3CCOC3=N)cc(C(=O)N[C@H](c3ccc(Cl)c(Cl)c3)C3CC3)c2)c(C(F)(F)F)n1 [Example 269, (S)—V—N-(Cyclopropyl(3,4-dichlorophenyl)methyl)-3-((2-iminooxazolidin-3-yl)methyl)-5-(1-methyl-3-(trifluoromethyl)-1H-pyrazol-4-yl)benzamide] | < 100 | < 0.1 | – | – |
| Cc1cc([C@@H](NC(=O)c2cc(CN3CCOC3=N)cc(-c3ccc(F)cc3C(F)F)c2)C2CC2)ccc1F [Example 272, (S)—N-(Cyclopropyl(4-fluoro-3-methylphenyl)methyl)-2′-(difluoromethyl)-4′-fluoro-5-((2-iminooxazolidin-3-yl)methyl)-[1,1′-biphenyl]-3-carboxamide] | 100 | < 0.1 | – | – |
| Cc1cc([C@@H](NC(=O)c2cc(CN3CCOC3=N)cc(-c3ccc(F)cc3OC(F)F)c2)C2CC2)ccc1F [Example 273, (S)—N-(Cyclopropyl(4-fluoro-3-methylphenyl)methyl)-2′-(difluoromethoxy)-4′-fluoro-5-((2-iminooxazolidin-3-yl)methyl)-[1,1′-biphenyl]-3-carboxamide] | 140 | < 0.1 | – | – |
| Cc1cc([C@@H](NC(=O)c2cc(Cn3ccoc3=N)cc(-c3ccc(F)cc3C(F)F)c2)C2CC2)ccc1F [Example 274, (S)—N-(Cyclopropyl(4-fluoro-3-methylphenyl)methyl)-2′-(difluoromethyl)-4′-fluoro-5-((2-iminooxazol-3(2H)-yl)methyl)-[1,1′-biphenyl]-3-carboxamide] | < 100 | < 0.1 | – | – |
| Cc1cc([C@@H](NC(=O)c2cc(CN3CCOC3=N)cc(-c3cn(C(C)C)nc3C(F)(F)F)c2)C2CC2)ccc1F [Example 275, (S)—N-(Cyclopropyl(4-fluoro-3-methylphenyl)methyl)-3-((2iminooxazolidin-3-yl)methyl)-5-(1-isopropyl-3-(trifluoromethyl)-1H-pyrazol-4-yl)benzamide] | < 100 | < 0.1 | – | – |
| CCn1cc(-c2cc(Cn3ccoc3=N)cc(C(=O)N[C@H](c3ccc(Cl)c(Cl)c3)C3CC3)c2)c(C(F)(F)F)n1 [Example 280, (S)—N-(Cyclopropyl(3,4-dichlorophenyl)methyl)-3-(1-ethyl-3-(trifluoromethyl)-1H-pyrazol-4-yl)-5-((2-iminooxazol-3(2H)-yl)methyl)benzamide] | < 100 | < 0.1 | – | – |
| CCn1cc(-c2cc(CN3CCOC3=N)cc(C(=O)N[C@H](c3ccc(Cl)c(Cl)c3)C3CC3)c2)c(C(F)(F)F)n1 [Example 281, (S)—N-(Cyclopropyl(3,4-dichlorophenyl)methyl)-3-(1-ethyl-3-(trifluoromethyl)-1H-pyrazol-4-yl)-5-((2-iminooxazolidin-3-yl)methyl)benzamide] | < 100 | < 0.1 | – | – |
| Cc1cc([C@@H](NC(=O)c2cc(CN3CCOC3=N)cc(-c3ccc(F)cc3C#N)c2)C2CC2)ccc1F [Example 282, (S)-2′-Cyano-N-(cyclopropyl(4-fluoro-3-methylphenyl)methyl)-4′-fluoro-5-((2-iminooxazolidin-3-yl)methyl)-[1,1′-biphenyl]-3-carboxamide] | 200 | 0.21 | – | – |
| Cc1cc([C@@H](NC(=O)c2cc(CN3CCOC3=N)cc(-c3ccc(F)cc3C(F)(F)F)c2F)C2CC2)ccc1F [Example 283, (S)—N-(Cyclopropyl(4-fluoro-3-methylphenyl)methyl)-2,4′-difluoro-5-((2-iminooxazolidin-3-yl)methyl)-2′-(trifluoromethyl)-[1,1′-biphenyl]-3-carboxamide] | 120 | 0.02 | – | – |
